Results published in patent US7790172B2, “Methods for reducing nasopharyngeal colonization of non-typable Haemophilus influenzae with synthetic chimeric fimbrin peptides” (priority 1995, dated 2010).
In brackets after ≈: the same amount, converted by molar mass. Peptide text beside a SMILES is read from it.

B1: fimbrin: isolated fimbrin protein preparation from NTHi strain #1128, used as comparison immunogen (protein)
chain: APQENTFYAGVKAGQGSFHDGINNNGAIKKGLSSSNYGYRRNTFTYGVFGGYQILNQDNFGLAAELGYDDFGRAKLREAGKPKAKHTNHGAYLSLKGSYEVLDGLDVYGKAGVALVRSDYKFYEDANGTRDHKKGRHTARASGLFAVGAEYAVLPELAVRLEYQWLTRVGKYRPQDKPNTAINYNPWIGCINAGISYRFGQGEAPVVAAPEMVSKTFSLNSDVTFAFGKANLKPQAQATLDSVYGEISQVKSRKVAVAGYTNRIGSDAFNVKLSQERADSVANYFVAKGVAADAISATGYGEANPVTGATCDQVKGRKALIACLAPDRRVEIAVNGTK

What was measured:
NTHi strain #1128 = experiment: Inhibition of adherence of NTHi to active ciliated chinchilla tracheal mucosal epithelium; type: cell-based, non-typable Haemophilus influenzae; details: dose dependence, 50 and 100 μg/ml
Protocol: LB1 and LB2 were each added to the lumen of excised 15 chinchilla tracheas and incubated for about 1 hour. Next 10^8cFu NTHi/ml were added to the cultures and incubated for about 1 hour. The tracheas were rinsed, homogenized, diluted and plated onto chocolate agar. The NTHi colonies were then counted.

[1] = tested on: antibodies in sera directed to NTHi; experiment: Anti-serum ELISA using synthetic chimeric fimbrin peptides as coating antigen; type: binding; details: peptide as ELISA antigen, chinchilla sera
Protocol: An anti-serum Elisa was performed by first coating an immulon 1, flat bottom plate containing 96 wells with varied concentrations of LB1 and LB2 according to the dilute checkerboard assay method. The LB1 and LB2 were diluted first in carbonate-bicarbonate buffer at pH 9.6. This coating buffer contained 1.59 g/L NaCO3, 2.93 g/L NaHCO3 at a pH of 9.6. 50 μl of the LB1 or LB2 were added for each well and incubated at 4° C. overnight. After the overnight incubation, the liquid was emptied from the plates and 100 μl per well of 10 mM PBS at pH 7.4 with 0.5% BSA was added, and incubated at 37° C. for 1 hour. Next, the liquid was emptied from the plate and washed three times with 10 mM PBS at pH 7.4 with 0.05% Tween 20 (PBT) at a volume of 250 μl per well. Then the plate was emptied by pounding three times onto paper towels. Next, 50 μl per well of the sera to be assayed was diluted in 10 mM PBS at a pH of 7.4 and added to the plate and incubated at 37° C. for one hour. The liquid was then emptied from the plates and washed three times with 10 mM PBS at pH 7.4 containing 0.05% Tween 20 (PBT) at a volume of 250 μl per well and the plates were pounded three times onto paper towels. Next, 500 μl per well of secondary antibody diluted 1 to 1000 times in PBT was added. Where the sera to be assayed was rabbit, the secondary antibody was HRP chimeric goat anti-rabbit antibody. Where the sera to be assayed was chinchilla sera, then the secondary antibody was HRP protein A. The secondary antibody was incubated at 37° C. for one hour. Next, the liquid was emptied from the plates and washed three times with 10 mM PBS at pH 7.4 containing 0.05% Tween 20. Next, one tablet o-phenylenediamine was suspended in 12 ml citrate phosphate buffer at pH 5.0. The citrate phosphate buffer contained 0.1 M citric acid, 1.0 M Na2HPO4 at pH 5.0. Next 12 μl 30% H2O2 was added to the o-phenylenediamine solution and 100 μl of this mixture was added to each well. The solution was incubated at room temperature in the dark and after 10 minutes, the absorbencies were read at 400 nm. The reaction was stopped at 16 minutes with 100μ per well of 2NH2SO4 and the plates were then read at 490 nm.

[2] = molecular target: T1, NTHi #1128 isolated fimbrin protein (25 and 37 kDa species) (Haemophilus influenzae, UniProt P45996); type: binding, non-typable Haemophilus influenzae; details: rabbit antisera; fimbrin isolated from NTHi strain #1128
T1 construct: isolated, reassembled, homologous fimbrial protein from NTHi; endogenous in cells; host or cells: NTHi strain #1128 (protein isolated from the bacterial outer membrane)
T1 sequence (P45996 22-359): B1 chain
Protocol: Two rabbits were immunized with the LB1 synthetic chimeric fimbrin peptide and two rabbits were immunized with the LB2 synthetic chimeric fimbrin peptide. Rabbits received an initial immunizing dose of 500 μg of either the LB1 or LB2 in complete Freund's adjuvant. The rabbits received a second dose of 400 μg of the synthetic chimeric fimbrin peptide 21 days later. The rabbits received a third dose of synthetic chimeric fimbrin peptide in complete Freund's adjuvant 42 days later with 400 μg of the same peptide in either incomplete Freud's adjuvant (IFA) or phosphate buffered saline (PBS) (one rabbit per diluent). Sera was obtained 3 weeks after each dose. The sera from each animal was assessed for titer and specificity against LB1, LB2 and fimbrial protein, by both ELISA and Western blot.

[3] = tested on: fimbrin from NTHi #1128 and NTHi #86-028NP; experiment: Western immunoblot of chinchilla antisera; type: binding, non-typable Haemophilus influenzae; details: for Western immunoblot recognition by antisera of homologous fimbrin / peptides: NTHi #1128 OMP preparation, isolated fimbrin, LB1, LB2; for Western immunoblot recognition by antisera of heterologous fimbrin: NTHi #86-028NP
Excerpt: FIG. 2A is a western immunoblot of chinchilla anti-LB1 antisera. Lane a contains a mixture of sera and NTHi #1128 enriched OMP preparation. Lane b contains a mixture of sera and isolated fimbrin from NTHi #1128. Lane c contains a mixture of sera and LB1. Lane d contains a mixture of sera and LB2. Lane e contains a mixture of sera and NTHi #86-028NP enriched OMP preparation. Lane f contains a mixture of sera and isolated fimbrin from NTHi #86-028NP. The lane marked “Std” contains pre-stained molecular mass markers; mass in kDa is given along left side of immunoblot.
FIG. 2B is a western immunoblot of chinchilla anti-LB2 antisera. Lane a contains a mixture of sera and NTHi #1128 enriched OMP preparation. Lane b contains a mixture of sera and isolated fimbrin from NTHi #1128. Lane c contains a mixture of sera and LB1. Lane D contains a mixture of sera and LB2. Lane e contains a mixture of sera and NTHi #86-028NP enriched OMP preparation. Lane f contains a mixture of sera and isolated fimbrin from NTHi #86-028NP. The lane marked “Std” contains pre-stained molecular mass markers; mass in kDa is given along left side of immunoblot.
FIG. 2C is a western immunoblot of chinchilla anti-fimbrial protein antisera. Lane a contains a mixture of sera and NTHi #1128 enriched OMP preparation. Lane b contains a mixture of sera and isolated fimbrin from NTHi #1128. Lane c contains a mixture of sera and LB1. Lane d contains a mixture of sera and LB2. Lane e contains a mixture of sera and NTHi #86-028NP enriched OMP preparation. Lane f contains a mixture of sera and isolated fimbrin from NTHi #86-028NP. The lane marked “Std” contains pre-stained molecular mass markers; mass in kDa is given along left side of immunoblot.
(§1) The chinchillas received a second dose of 50 μg of either the LB1 or LB2 in incomplete Freund's adjuvant 30 days later. Sera was obtained 2 weeks after the second dose.

Solubility in water = type: physicochemical
NTHi strain 1128 = experiment: Nasopharyngeal colonization by NTHi in immunized chinchillas (nasopharyngeal lavage); type: in vivo, chinchilla
Protocol: Nasopharyngeal colonization by NTHi was/were examined in two separate trials, study A and study B.
In study A, five cohorts of four chinchillas each were actively immunized with one of the following preparations: in complete Freund's adjuvant or a saline control preparation; 100 μg of the synthetic chimeric fimbrin peptide LB1, 100 μg of a total outer membrane protein preparation from strain #1128; 100 μg of the synthetic chimeric fimbrin peptide LB2; 10 μg isolated fimbrin protein preparation from strain #1128. The total outer membrane preparation and fimbrin were assessed for endotoxin content prior to their use as an immunogen via a chromogenic Amoebocyte Lysate assay which is commercially available from Whittaker Bioproducts under the designation QCL-1000. The preparations were subcutaneously injected into the chinchillas.
Then 30 days later the animals received a booster of one-half of the initial dosage of the same immunogen but in incomplete Freund's adjuvant. Ten days later they received 6×10^6 TCID50 adenovirus intranasally. Thereafter, these five cohorts were divided into two groups each and challenged intranasally, about 5×10^7cfu of NTHi strain 1128. The chinchillas were subject to nasopharyngeal lavage over a 21 day period, and the lavage fluid was examined and quantified for NTHi. The NTHi concentration was determined by plating on selective media. The NTHi lavage fluid concentration was plotted over time.
Again, the NTHi lavage fluid concentration was plotted over time.

[4] = molecular target: T2, NTHi #1128 fimbrial protein (Haemophilus influenzae, UniProt P45996); type: in vivo, non-typable Haemophilus influenzae; details: chinchilla sera 2 weeks after second dose; ELISA
T2 construct: isolated, reassembled, homologous fimbrial protein from NTHi; endogenous in cells; host or cells: NTHi strain #1128 (protein isolated from the bacterial outer membrane)
T2 sequence (P45996 22-359): B1 chain
Protocol: as §1

[5] = tested on: native fimbriae of whole, unfixed NTHi strain #1128; experiment: Indirect immunogold labeling of unfixed NTHi with chinchilla antiserum (transmission electron micrograph); type: binding, non-typable Haemophilus influenzae
Excerpt: FIG. 3 is a transmission electron micrograph of two unfixed NTHi strain #1128 cells, shown at bottom of the Figure, which were indirectly immuno-labeled with chinchilla anti-LB1IFA serum and 10 nm gold-chimeric Protein A.
Two unfixed NTHi strain #1128 cells were indirectly immunolabeled with chinchilla anti-LB1IFA serum and 10 nm gold-chimeric Protein A. The preparation was subjected to stable, low-angle shadow casting with platinum and palladium to impart a sense of height to low-profile fimbriae.

[6] = study A, chinchillas immunized with 100 μg peptide plus booster, intranasal challenge about 5×10^7 cfu NTHi strain 1128, FIG. 4
[7] = study B, higher intranasal challenge dose 1.5×10^8 cfu/animal NTHi #1128, FIG. 5

Molecule	Effect on inhibition of adherence of NTHi strain #1128 to ciliated chinchilla tracheal epithelium (NTHi strain #1128)	Reciprocal Titer ([1]; post infection)	Reciprocal Titer ([1]; pre infection)	Western blot reactivity of antisera with fimbrin [2]	Western immunoblot recognition by antisera of homologous fimbrin / peptides [3]	solubility (Solubility in water)	NTHi in nasopharyngeal lavage fluid by Day 21 (NTHi strain 1128; [6])	NTHi in nasopharyngeal lavage fluid by Day 21 (NTHi strain 1128; [7])	Reciprocal Titer of Sera against: NTHi #1128 fimbrial protein [4]	Recognition of native fimbriae by antiserum (immunogold labeling) [5]	Western immunoblot recognition by antisera of heterologous fimbrin [3]
CC[C@H](C)[C@H](NC(=O)[C@H](CC(C)C)NC(=O)[C@H](CO)NC(=O)[C@H](CC(C)C)NC(=O)[C@H](CC(C)C)NC(=O)[C@H](CCCCN)NC(=O)[C@H](CC(C)C)NC(=O)[C@H](CO)NC(=O)[C@@H]1CCCN1C(=O)CNC(=O)[C@H](CCCCN)NC(=O)[C@H](CCCCN)NC(=O)[C@H](Cc1c[nH]cn1)NC(=O)[C@H](CC(=O)O)NC(=O)[C@H](CCCNC(=N)N)NC(=O)[C@@H](NC(=O)CNC(=O)[C@H](CC(N)=O)NC(=O)[C@H](C)NC(=O)[C@H](CC(=O)O)NC(=O)[C@H](CCC(=O)O)NC(=O)[C@H](Cc1ccc(O)cc1)NC(=O)[C@H](Cc1ccccc1)NC(=O)[C@H](CCCCN)NC(=O)[C@H](Cc1ccc(O)cc1)NC(=O)[C@H](CC(=O)O)NC(=O)[C@H](CO)NC(=O)[C@@H](N)CCCNC(=N)N)[C@@H](C)O)C(=O)N[C@@H](CCCCN)C(=O)NCC(=O)N[C@H](C(=O)N[C@H](C(=O)N[C@H](C(=O)N[C@@H](Cc1c[nH]cn1)C(=O)N[C@@H](CCCNC(=N)N)C(=O)N[C@@H](CC(C)C)C(=O)N[C@@H](CCC(=O)O)C(=O)NCC(=O)N[C@H](C(=O)N[C@@H](CCC(=O)O)C(=O)O)C(C)C)C(C)C)[C@@H](C)CC)C(C)C [LB1] (H-RSDYKFYEDANGTRDHKKGPSLKLLSLIKGVIVHRLEGVE-OH)	dose-dependent effect on inhibition of adherence	>500	≦100	sera reactivity to fimbrin (both molecular weight species) occurred only after immunization	only recognized the LB1	~10000 µg/mL (≈ 2190 µM)	0	0	15,000	–	–
CC[C@H](C)[C@H](NC(=O)[C@H](CC(C)C)NC(=O)[C@H](CO)NC(=O)[C@H](CC(C)C)NC(=O)[C@H](CC(C)C)NC(=O)[C@H](CCCCN)NC(=O)[C@H](CC(C)C)NC(=O)[C@H](CO)NC(=O)[C@@H]1CCCN1C(=O)CNC(=O)[C@@H](NC(=O)[C@H](CC(N)=O)NC(=O)[C@@H]1CCCN1C(=O)[C@H](CCCCN)NC(=O)[C@H](CC(=O)O)NC(=O)[C@H](CCC(N)=O)NC(=O)[C@@H]1CCCN1C(=O)[C@H](CCCNC(=N)N)NC(=O)[C@H](Cc1ccc(O)cc1)NC(=O)[C@H](CCCCN)NC(=O)CNC(=O)[C@@H](NC(=O)[C@H](CCCNC(=N)N)NC(=O)[C@@H](NC(=O)[C@H](CC(C)C)NC(=O)[C@H](Cc1c[nH]c2ccccc12)NC(=O)[C@H](CCC(N)=O)NC(=O)[C@@H](N)Cc1ccc(O)cc1)[C@@H](C)O)C(C)C)[C@@H](C)O)C(=O)N[C@@H](CCCCN)C(=O)NCC(=O)N[C@H](C(=O)N[C@H](C(=O)N[C@H](C(=O)N[C@@H](Cc1c[nH]cn1)C(=O)N[C@@H](CCCNC(=N)N)C(=O)N[C@@H](CC(C)C)C(=O)N[C@@H](CCC(=O)O)C(=O)NCC(=O)N[C@H](C(=O)N[C@@H](CCC(=O)O)C(=O)O)C(C)C)C(C)C)[C@@H](C)CC)C(C)C [LB2] (H-YQWLTRVGKYRPQDKPNTGPSLKLLSLIKGVIVHRLEGVE-OH)	–	500	≦100	–	recognized homologous fimbrin	~10000 µg/mL (≈ 2180 µM)	0	performed less well	10,000	Equivalent results	recognized heterologous fimbrin contained in the outer membrane preparation
B1	–	–	–	–	recognizes itself	–	–	–	–	–	recognizes a heteroloous fimbrin
